Data reported in US12630544B2, “Compound, α-synuclein aggregate binder, and use thereof” (NATIONAL INSTITUTES FOR QUANTUM SCIENCE AND TECHNOLOGY, priority 2020, dated 2026).

How the values were obtained:
[1] = target: T1, α-synuclein lesion (Mus musculus, UniProt O55042); assay: In vivo two-photon laser scanning fluorescence microscopy of α-synuclein fibril-inoculated model mouse; details: 50 μl DMSO solution containing 0.1% compound, i.p.
T1 construct: from tissue; host or cells: brain of C57/BL/6 mouse inoculated in the striatum with recombinant (E. coli) mouse α-synuclein fibrils; sections or living animal
Protocol: (§1) First, mouse α-synuclein was expressed in and extracted from E. coli as a recombinant protein, and then incubated in vitro to form insoluble α-synuclein aggregates. The α-synuclein aggregates were then inoculated into the striatum of a mouse. […] Note that the inoculation of the α-synuclein aggregates into the striatum of the mouse was carried out in the following manner. First, hair on the head of a 9-week-old C57/BL/6 male mouse which had been anesthetized with 1.5% (v/v) isoflurane was removed, and the scalp was disinfected with isodine, followed by application of xylocaine and incision in the scalp to expose the skull. Then, a hole was drilled in the skull at a position of 0.05 mm posterior to the bregma and 2 mm lateral to the midline, and 3 μl of an α-synuclein fibril solution (mouse α-synuclein fibril (4 mg/ml) in saline) was injected into a position 2 μm ventral to the brain surface with use of a glass pipette. The scalp was then returned and sutured.
A model mouse was anesthetized with 1.5% (v/v) isoflurane 6 or more weeks after inoculation of an α-synuclein fibril solution. Then, a cranial window was placed on the model mouse in accordance with the Seylaz-Tomita method (Tomita et al. J Cereb Blood Flow Metab 25, 858-67, 2005). Two or more weeks after the placement of the cranial window, the mouse was anesthetized with 1.5% (v/v) isoflurane, and then 50 μl of a DMSO solution containing 0.1% BF-227, PBB3, SPAL-T-05, or SPAL-T-06 was intraperitoneally administered to the mouse. Thirty minutes after the administration, the mouse was fixed under a two-photon laser fluorescence microscope, 100 μl of physiological saline containing 5 mM Sulforhodamine 101 was intraperitoneally administered to the mouse, and then intravital two-photon fluorescence imaging was carried out at an excitation wavelength of 900 nm. Detection wavelengths for BF-227, PBB3, SPAL-T-05, and SPAL-T-06 were set at 500 nm to 550 nm, and a detection wavelength for Sulforhodamine 101 was set at 573 nm to 648 nm. In FIG. 4, each arrowhead indicates a blood vessel, and each arrow indicates fluorescence from the compound binding to an α-synuclein lesion.

[2] = target: T2, α-synuclein lesions (Homo sapiens, UniProt P37840); assay: In vitro fluorescence microscope measurement of the sections subjected to autoradiography (DLB, MSA); details: 30 μM, 50% ethanol, 30 minutes
T2 construct: α-synuclein aggregates formed in the brain of the DLB patient; from tissue; host or cells: post-mortem human brain: amygdala of DLB patient (sections or homogenate); cerebellum of MSA patient
Protocol: The section that had been subjected to the autoradiography was analyzed by fluorescent staining. Specifically, the section and 30 μM SPAL-T-06 were incubated in a 50% ethanol solution at room temperature for 30 minutes. Thereafter, the section was washed with a 50% ethanol solution for 5 minutes and with ultrapure water for 3 minutes. This washing was carried out twice. After the section was mounted in a mounting medium (VECTASHIELD H-1000), an image of an α-synuclein aggregate-enriched area on the section was obtained with use of a fluorescence microscope (DM4000 (excitation wavelength: 391 nm to 437 nm)). An adjacent brain section was also washed with a phosphate buffer solution, and then treated in an autoclave for antigen retrieval. After the section was subjected to immunohistochemical staining with an anti-phosphorylated α-synuclein monoclonal antibody (pS129, abcam, ab59264) (1:1000) and then mounted in a mounting medium (VECTASHIELD H-1000), images were obtained with use of fluorescence microscopes (BZ-X710, KEYENCE (excitation wavelength: 450 nm to 490 nm) and DM4000 (excitation wavelength: 460 nm to 500 nm)).

[3] = target: T3, phosphorylated α-synuclein (Mus musculus, UniProt O55042); assay: In vitro fluorescence microscope measurement, brain sections of α-synuclein fibril-inoculated mouse; details: 30 μM compound, 20% ethanol, 30 minutes; mouse brain section
T3 construct: from tissue; host or cells: brain of C57/BL/6 mouse inoculated in the striatum with recombinant (E. coli) mouse α-synuclein fibrils; sections or living animal
Protocol: as §1, with “Then, a hole was drilled in the skull at a position of 0.05 mm posterior to the bregma and 2 mm lateral to the midline, and 3 μl of an α-synuclein fibril solution (mouse α-synuclein fibril (4 mg/ml) in saline) was injected into a position 2 μm ventral to the brain surface with use of a glass pipette. The scalp was then returned and sutured.” left out
The brain of this α-synuclein fibril-inoculated mouse was extracted, and then sections were prepared. The sections were analyzed by fluorescent staining. […] After the section was mounted in a mounting medium (VECTASHIELD H-1000), an image of an α-synuclein aggregate-enriched area on the section was obtained with use of a fluorescence microscope (DM4000 (excitation wavelength: 391 nm to 437 nm)). […] After the section was subjected to immunohistochemical staining with use of an anti-phosphorylated α-synuclein monoclonal antibody (pS129, abcam, ab59264) (1:1000) and then mounted in a mounting medium (VECTASHIELD H-1000), an image of the same area as above was obtained with use of a fluorescence microscope (DM4000 (excitation wavelength: 460 nm to 500 nm)). […]

Compound: CNc1cnc(C#C/C=C/c2nc3ccc(OCC(O)CF)cc3s2)cn1 (stereo not shown) [SPAL-T-06, (E)-1-fluoro-3-((2-(4-(5-(methylamino)pyrazin-2-yl)but-1-en-3-yn-1-yl)benzo[d]thiazol-6-yl)oxy)propan-2-ol]
- detection of / binding to α-synuclein lesions in living mouse brain (two-photon fluorescence) ([1]; excitation 900 nm): bound to α-synuclein lesions
- delivery into the brain after intraperitoneal administration ([1]; imaging 30 minutes after administration): delivered into the brain and further into neurons of the living body
- binding to α-synuclein lesions in DLB and MSA brain sections (fluorescent staining) [2]: bound to α-synuclein lesions
- binding to lesion caused by phosphorylated α-synuclein (fluorescent staining, co-stained with pS129 antibody) [3]: bound to a lesion caused by phosphorylated α-synuclein
